Results taken from PubChem BioAssay (NCI).
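Assay format: 96-well plates, 48-hour exposure. Abbreviation: GI50, concentration required for 50% inhibition of growth. At the TGI there is no net growth.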

Legend:
Assay in all cases: NCI-60 cell line screen, 48 h
UACC-257 melanoma = test system: UACC-257 melanoma
HT29 colon = test system: HT29 colon
LOX IMVI melanoma = test system: LOX IMVI melanoma
HOP-62 NSCLC = test system: HOP-62 NSCLC
UO-31 renal = test system: UO-31 renal
CCRF-CEM leukemia = test system: CCRF-CEM leukemia
BT-549 breast = test system: BT-549 breast
SR leukemia = test system: SR leukemia
OVCAR-4 ovarian = test system: OVCAR-4 ovarian
M14 melanoma = test system: M14 melanoma

SMILES	GI50 (UACC-257 melanoma) [µM]	TGI (UACC-257 melanoma) [µM]	GI50 (HT29 colon) [µM]	TGI (HT29 colon) [µM]	GI50 (LOX IMVI melanoma) [µM]	TGI (LOX IMVI melanoma) [µM]	GI50 (HOP-62 NSCLC) [µM]	TGI (HOP-62 NSCLC) [µM]	GI50 (UO-31 renal) [µM]	TGI (UO-31 renal) [µM]	GI50 (CCRF-CEM leukemia) [µM]	TGI (CCRF-CEM leukemia) [µM]	GI50 (BT-549 breast) [µM]	TGI (BT-549 breast) [µM]	GI50 (SR leukemia) [µM]	TGI (SR leukemia) [µM]	GI50 (OVCAR-4 ovarian) [µM]	TGI (OVCAR-4 ovarian) [µM]	GI50 (M14 melanoma) [µM]	TGI (M14 melanoma) [µM]
CN(C)CCCSc1ccccc1NC1=C(Cl)C(=O)C(Nc2ccccc2SCCCN(C)C)=C(Cl)C1=O	1.96	3.45	2.13	4.16	1.39	2.88	3.59	10.6	1.47	2.79	0.476	4.15	1.46	2.87	2.15	6.05	1.29	2.56	1.74	3.72
COc1ccc(C2CC(c3ccc(Nc4ccnc5cc(Cl)ccc45)cc3)=NN2C=O)cc1 (centres undefined)	43.9	> 100	3.81	> 100	2.32	15.6	43.7	> 100	19.7	> 100	2.71	> 100	10.9	36.6	2.83	6.64	13.4	> 100	7.67	> 100
Oc1c(Cl)cc(Cl)cc1/C=N/Nc1nnc(N/N=C/c2cc(Cl)cc(Cl)c2O)c2ccccc12	1.44	> 100	0.595	> 100	0.225	0.586	0.388	> 28.8	0.43	> 100	0.275		0.549	> 100	0.434	> 100	0.388	> 100	0.434	> 100
